{"source": "patent US20160045472A1", "about": "“UROLITHIN B FOR MUSCLE GROWTH” (PROCELL SPRL, priority 2013, published 2016)", "key": {"[1]": {"system": "C2C12 murine skeletal muscle myoblasts", "test": "diameter of C2C12 myotubes (anti-desmin labelling)", "format": "cell-based", "conditions": "for mean diameter size of myotubes: C2C12 myotubes, urolithin B 15 μM 24 h, TNF-alpha 10 ng/mL 4 h, leucine 5 mM", "description": "The inventors selected C2C12 murine skeletal muscle myoblasts for measuring the effect of polyphenols on muscle metabolism, especially when submitted to inflammatory stress (e.g. upon TNF-alpha exposure). In these conditions, anabolism is blocked.\nC2C12 myoblasts were differentiated for 4 days using 1% horse serum and 1% penicillin/streptomycin. The cells were thereafter grown for 24 h either with the same differentiation medium or with the differentiation medium supplemented with 15 μM urolithin B (conditions 5-8 of FIGS. 2-4 and of Table 1). Then the cells were grown either with the same differentiation medium or in the differentiation medium supplemented with 10 ng/mL TNF-alpha for 4 h (conditions 3-4 and 7-8 of FIGS. 2-4 and of Table 1). Thereafter, the cells were grown either with the same differentiation medium or in the differentiation medium supplemented with 5 mM leucine (conditions 2, 4, 6 and 8 of FIGS. 2-4 and of Table 1). The myotubes were labelled using anti-desmin antibodies, and nuclei labelling by Hoechst staining. Urolithin B consistently stimulates the diameter of myotubes."}, "mTOR": {"system": "mTOR", "test": "mTOR phosphorylation", "format": "cell-based", "from_the_text": "The inventors then have measured mTOR phosphorylation again to reflect protein synthesis and have observed a marginal leucine-induced phosphorylation and a strong urolithin B-induced phosphorylation."}, "P70S6k": {"system": "P70S6k", "test": "P70S6k phosphorylation", "format": "cell-based"}, "androgen receptor": {"system": "androgen receptor", "test": "androgen receptor agonism (concluded from bicalutamide blockade)", "format": "cell-based", "from_the_text": "Finally, the inventors have measured the effect of rapamycin, on another mTOR inhibitor and of the anti-androgen bicalutamide (FIGS. 5-6 show the effect on the size of the muscular fibres) on the urolithin B-induced effects (including on the phosphorylation on mTOR, of AMPK, . . . ) and conclude that urolithin B acts upon binding and activating the androgen receptor, then by releasing the AMPK-inhibition on mTOR, increases protein synthesis in muscle cells, then the diameter of muscle fibres."}, "[2]": {"system": "breast and on prostate cancer cell lines", "conditions": "cited from earlier work"}, "C2C12 myoblasts": {"system": "C2C12 myoblasts", "test": "toxicity of urolithin B addition", "format": "cell-based, murine", "conditions": "concentrations of up to 40 μM", "description": "The inventors have firstly measured if the addition of urolithin B presents some toxicity, but no toxicity was measured for concentrations of up to 40 μM."}, "Akt": {"system": "Akt", "test": "Akt phosphorylation", "format": "cell-based", "from_the_text": "(§1) The inventors then have measured Akt and PRAS40 phosphorylation still to analyse possible metabolism pathways. However, besides a tendency of synergy between the leucine and urolithin B addition, no major difference in phosphorylation patterns were observed."}, "PRAS40": {"system": "PRAS40", "test": "PRAS40 phosphorylation", "format": "cell-based", "from_the_text": "as §1"}, "AMPK": {"system": "AMPK", "test": "AMPK phosphorylation", "format": "cell-based"}, "denervated muscle": {"system": "denervated muscle", "test": "weight loss of denervated muscle, intravenous", "format": "in vivo", "conditions": "mammal"}, "[3]": {"conditions": "compared with urolithins A, C and D and whole polyphenol extract; cited from earlier work"}, "[4]": {"conditions": "human patients fed with pomegranate extract; compared with urolithin A; cited from earlier work"}}, "data": [{"molecule": "CC(C)C[C@H](N)C(=O)O", "note": "[Leucine, leucine]", "values": [{"measurement": "mean diameter size of myotubes", "setting": "[1]", "result": 25.5}, {"measurement": "mTOR phosphorylation", "setting": "mTOR", "result": "marginal"}]}, {"molecule": "O=c1oc2cc(O)ccc2c2ccc(O)cc12", "note": "[urolithin A, reference compound]", "values": [{"measurement": "size of myotubes", "setting": "[1]; up to 10 μM urolithin A, vs control", "result": "does not increase"}, {"measurement": "induction of P70S6k phosphorylation", "setting": "P70S6k", "result": "almost no induction"}, {"measurement": "androgen-receptor agonist", "setting": "androgen receptor", "result": "not"}, {"measurement": "anti cancer activity", "setting": "[2]", "result": "direct anti cancer activity"}]}, {"molecule": "O=c1oc2cc(O)ccc2c2ccccc12", "note": "[urolithin B]", "values": [{"measurement": "mean diameter size of myotubes", "setting": "[1]", "result": 32.6}, {"measurement": "size of myotubes", "setting": "[1]; urolithin B at 15 μM", "result": "significantly increased"}, {"measurement": "toxicity", "setting": "C2C12 myoblasts", "result": "no toxicity"}, {"measurement": "mTOR phosphorylation", "setting": "mTOR", "result": "strong"}, {"measurement": "Akt phosphorylation", "setting": "Akt", "result": "does not induce"}, {"measurement": "PRAS40 phosphorylation", "setting": "PRAS40", "result": "does not induce"}, {"measurement": "AMPK phosphorylation", "setting": "AMPK", "result": "strong reduction"}, {"measurement": "androgen-receptor agonist", "setting": "androgen receptor", "result": "agonist"}, {"measurement": "weight loss of denervated muscle", "setting": "denervated muscle", "result": "prevents"}, {"measurement": "antioxidant and anti-inflammatory properties", "setting": "[3]", "result": "much weaker"}, {"measurement": "amount in the blood", "setting": "[4]", "result": "much lower"}, {"measurement": "anti cancer activity", "setting": "[2]", "result": "direct anti cancer activity"}]}, {"molecule": "TNFa", "values": [{"measurement": "mean diameter size of myotubes", "setting": "[1]", "result": 16.7}]}]}
